Measurements published in patent US10669296B2, “LXR agonists and uses thereof” (Rgenix, Inc., priority 2014, dated 2020).

Columns and labels:
Cancer cells (MeWo) = experiment: Matrigel invasion assay; assay type: cell-based; settings: 1 μM drug, invasion 24 h
Description: Cancer cells (MeWo) were pre-treated in presence of 1 μM drug or control (DMSO) for 72 h after which cancer cells were switched to serum-starvation in 0.2% FBS DMEM-based media for 16 h in the presence of the drug or control, respectively. Trans-well invasion chambers (354480, BD Biosciences, Bedford, Mass.) were pre-equilibrated in DMEM-based media prior to the beginning of the assay by adding 0.5 ml of starvation media to the top and bottom chambers. After 30 min, the media in the top chamber was removed, and 0.5 ml of media containing 1×10^5 cancer cells in the presence of the drug, was added into each matrigel-coated trans-well insert. Cells were allowed to invade through the matrigel-coated inserts for 24 h at 37° C.

ApoE = ApoE gene expression analysis by qRT-PCR in MeWo cancer cells; assay type: cell-based; settings: 48 h; for Emax at 10 µM / Emax at 1 µM: read-out: ApoE gene expression in relation to GW3965 at 1 μM (100%)
Description: Cancer cells (MeWo) were treated in presence of drug or control (DMSO) at indicated concentrations for 48 h. RNA was extracted from whole cell lysates using the Total RNA Purification Kit (17200, Norgen, Thorold, Canada). 600 ng of total RNA was then reverse transcribed into cDNA using the Verso cDNA Synthesis Kit (AB-1453/B, Fisher Scientific). 6 ng of the resulting cDNA was then mixed with SYBR green PCR Master Mix (4309155, Applied Biosystems) and the appropriate primers. Each reaction was performed in quadruplicate, and mRNA expression was quantified by performing real-time PCR amplification using a StepOne Plus Real-Time PCR System (Applied Biosystems). GAPDH was used as an endogenous control for normalization. EC50 values were calculated using Prism6 software and plotting expression values versus drug concentration. The following primers were used: [table] The results are shown in relation to GW3965 ApoE expression at 1 μM (i.e. 100%).

In the case of CS(=O)(=O)N1CCCC(OCCCN(Cc2cccc(C(F)(F)F)c2Cl)CC(c2ccccc2)c2ccccc2)C1 (centres unmarked) [Compound 29, {[2-chloro-3-(trifluoromethyl)phenyl]methyl}(2,2-diphenylethyl){3-[(1-methanesulfonylpiperidin-3-yl)oxy]propyl}amine], the “% of Cells Migrated Compared to Control” value (Cancer cells (MeWo)) is reported as less than 50%, the “ApoE gene expression in relation to GW3965 at 1 μM (100%)” value (from here on “ApoE gene expression … (100%)”) (ApoE; 1 μM) is reported as “++ (“++” > 40% induction)” and the EC50 (ApoE) is reported as less than 0.3 µM. For the same compound, the Emax at 10 µM (ApoE; Homo sapiens, MeWo, 10 μM) was greater than 80%.
With O=C(Cc1cccc(OCCCN(Cc2cccc(C(F)(F)F)c2Cl)CC(c2ccccc2)c2ccccc2)c1)NO [Compound 1, 2-{3-[3-({[2-chloro-3-(trifluoromethyl)phenyl]methyl}(2,2-diphenylethy)amino)propoxy]phenyl}-N-hydroxyacetamide] the “% of Cells Migrated Compared to Control” value (Cancer cells (MeWo)) was less than 95%, the EC50 (ApoE; Homo sapiens, MeWo) was less than 1 µM and the Emax at 1 µM (ApoE; Homo sapiens, MeWo, 1 μM) was greater than 80%. For the same compound, the Emax at 10 µM (ApoE; Homo sapiens, MeWo, 10 μM) was less than 40%.
C[C@H](CCO[C@H]1CCCN(S(C)(=O)=O)C1)N(Cc1cccc(C(F)(F)F)c1Cl)CC(c1ccccc1)c1ccccc1 [Compound 31, {[2-chloro-3-(trifluoromethyl)phenyl]methyl}(2,2-diphenylethyl)[(2R)-4-{[(3S)-1-methanesulfonylpiperidin-3-yl]oxy}butan-2-yl]amine] was tested, and the “% of Cells Migrated Compared to Control” value (Cancer cells (MeWo)) was less than 70%, the EC50 (ApoE; Homo sapiens, MeWo) was less than 1 µM and the Emax at 1 µM (ApoE; Homo sapiens, MeWo, 1 μM) was greater than 40%. For the same compound, the Emax at 10 µM (ApoE; Homo sapiens, MeWo, 10 μM) was greater than 80%.
In the case of CS(=O)(=O)c1cc(OCCCN(CCc2ccccc2)Cc2cccc(C(F)(F)F)c2Cl)cc(F)c1CO [Compound 81, {4-[3-({[2-chloro-3-(trifluoromethyl)phenyl]methyl}(2-phenylethyl)amino)propoxy]-2-fluoro-6-methanesulfonylphenyl}methanol], the EC50 (ApoE; Homo sapiens, MeWo) is reported as less than 0.3 µM, the Emax at 1 µM (ApoE; Homo sapiens, MeWo, 1 μM) is reported as greater than 40% and the Emax at 10 µM (ApoE; Homo sapiens, MeWo, 10 μM) is reported as greater than 40%.
Work on CS(=O)(=O)c1cc(OCCCN(Cc2cccc(OC(F)(F)F)c2)CC(c2ccccc2)c2ccccc2)cc(F)c1CO [Compound 74, (4-{3-[(2,2-diphenylethyl)({[3-(trifluoromethoxy)phenyl]methyl})amino]propoxy}-2-fluoro-6-methanesulfonylphenyl)methanol] yielded an Emax at 1 µM (ApoE; Homo sapiens, MeWo, 1 μM) greater than 40% and an Emax at 10 µM (ApoE; Homo sapiens, MeWo, 10 μM) greater than 40%.
Compound CC(C)(O)c1cccc(OCCCN(Cc2cccc(C(F)(F)F)c2Cl)CC(c2ccccc2)c2ccccc2)c1 [Compound 4, 2-{3-[3-({[2-chloro-3-(trifluoromethyl)phenyl]methyl}(2,2-diphenylethyl)amino)propoxy]phenyl}propan-2-ol] has an EC50 (ApoE; Homo sapiens, MeWo) of less than 1 µM, an Emax at 1 µM (ApoE; Homo sapiens, MeWo, 1 μM) greater than 40% and an Emax at 10 µM (ApoE; Homo sapiens, MeWo, 10 μM) greater than 40%.
In the case of CNC(=O)c1c(F)cc(OCCCN(Cc2cccc(C(F)(F)F)c2Cl)CC(c2ccccc2)c2ccccc2)cc1S(C)(=O)=O [Compound 92, 4-[3-({[2-chloro-3-(trifluoromethyl)phenyl]methyl}(2,2-diphenylethyl)amino)-propoxy]-2-fluoro-6-methanesulfonyl-N-methylbenzamide], the Emax at 1 µM (ApoE; Homo sapiens, MeWo, 1 μM) is reported as greater than 40%.
With CC(O)c1c(F)cc(OCCCN(Cc2cccc(C(F)(F)F)c2Cl)CC(c2ccccc2)c2ccccc2)cc1S(C)(=O)=O (centres unmarked) [Compound 85, 1-{4-[3-({[2-chloro-3-(trifluoromethyl)phenyl]methyl}(2,2-diphenylethyl)amino)propoxy]-2-fluoro-6-methanesulfonylphenyl}ethan-1-ol] the EC50 (ApoE; Homo sapiens, MeWo) was less than 1 µM and the Emax at 1 µM (ApoE; Homo sapiens, MeWo, 1 μM) was greater than 80%.
Work on CS(=O)(=O)c1cc(OCCCN(Cc2cccc(C(F)(F)F)c2Cl)CC(c2ccccc2)C2CCCCC2)cc(F)c1CO (centres unmarked) [Compound 78, {4-[3-({[2-chloro-3-(trifluoromethyl)phenyl]methyl}(2-cyclohexyl-2-phenylethyl)amino)propoxy]-2-fluoro-6-methanesulfonylphenyl}methanol] yielded an Emax at 1 µM (ApoE; Homo sapiens, MeWo, 1 μM) greater than 40%.
For CS(=O)(=O)c1cc(OCCCN(Cc2cccc(C(F)(F)F)c2Cl)CC(c2ccccc2)c2ccccc2)cc(F)c1C(O)C(F)(F)F (centres unmarked) [Compound 95, 1-{4-[3-({[2-chloro-3-(trifluoromethyl)phenyl]methyl}(2,2-diphenylethyl)amino)propoxy]-2-fluoro-6-methanesulfonylphenyl}-2,2,2-trifluoroethan-1-ol], the Emax at 1 µM (ApoE; Homo sapiens, MeWo, 1 μM) was greater than 40%.
In the case of CS(=O)(=O)c1cccc(OCCCN(Cc2cccc(C(F)(F)F)c2Cl)CC(c2ccccc2)c2ccccc2)c1 [Compound 7, {[2-chloro-3-(trifluoromethyl)phenyl]methyl}(2,2-diphenylethyl)[3-(3-methanesulfonylphenoxy)propyl]amine], the EC50 (ApoE; Homo sapiens, MeWo) is reported as less than 1 µM, the Emax at 1 µM (ApoE; Homo sapiens, MeWo, 1 μM) is reported as greater than 80% and the Emax at 10 µM (ApoE; Homo sapiens, MeWo, 10 μM) is reported as greater than 40%.
C[C@@H](CCOc1cc(F)c(CO)c(S(C)(=O)=O)c1)N(Cc1cccc(C(F)(F)F)c1Cl)CC(c1ccccc1)c1ccccc1 [Compound 71, {4-[(3S)-3-({[2-chloro-3-(trifluoromethyl)phenyl]methyl}(2,2-diphenylethyl)amino)butoxy]-2-fluoro-6-methanesulfonylphenyl}methanol] showed an Emax at 1 µM (ApoE; Homo sapiens, MeWo, 1 μM) of less than 40%.
O=C(O)Cc1cccc(OCCCN(Cc2cccc(OC(F)(F)F)c2)CC(c2ccccc2)c2ccccc2)c1 [Compound 24] showed an Emax at 1 µM (ApoE; Homo sapiens, MeWo, 1 μM) greater than 40% and an Emax at 10 µM (ApoE; Homo sapiens, MeWo, 10 μM) greater than 40%.
In the case of C[C@H](CCOc1cc(F)c(CO)c(S(C)(=O)=O)c1)N(Cc1cccc(C(F)(F)F)c1Cl)CC(c1ccccc1)c1ccccc1 [Compound 9, {4-[(3R)-3-({[2-chloro-3-(trifluoromethyl)phenyl]methyl}(2,2-diphenylethyl)amino)butoxy]-2-fluoro-6-methanesulfonylphenyl}methanol], the “% of Cells Migrated Compared to Control” value (Cancer cells (MeWo)) is reported as less than 50%, the EC50 (ApoE; Homo sapiens, MeWo) is reported as less than 0.3 µM and the Emax at 1 µM (ApoE; Homo sapiens, MeWo, 1 μM) is reported as greater than 40%. For the same compound, the Emax at 10 µM (ApoE; Homo sapiens, MeWo, 10 μM) was greater than 80%.
Work on CC(=O)c1c(F)cc(OCCCN(Cc2cccc(C(F)(F)F)c2Cl)CC(c2ccccc2)c2ccccc2)cc1S(C)(=O)=O [Compound 87, 1-{4-[3-({[2-chloro-3-(trifluoromethyl)phenyl]methyl}(2,2-diphenylethyl)amino)propoxy]-2-fluoro-6-methanesulfonylphenyl}ethan-1-one] yielded an Emax at 1 µM (ApoE; Homo sapiens, MeWo, 1 μM) greater than 40%.
With C[C@H](CN(CCCOc1cc(F)c(CO)c(S(C)(=O)=O)c1)Cc1cccc(C(F)(F)F)c1Cl)c1ccccc1 [Compound 80, {4-[3-({[2-chloro-3-(trifluoromethyl)phenyl]methyl}[(2S)-2-phenylpropyl]amino)propoxy]-2-fluoro-6-methanesulfonylphenyl}methanol] the EC50 (ApoE; Homo sapiens, MeWo) was less than 1 µM, the Emax at 1 µM (ApoE; Homo sapiens, MeWo, 1 μM) was greater than 80% and the Emax at 10 µM (ApoE; Homo sapiens, MeWo, 10 μM) was greater than 80%.
With CS(=O)(=O)N1CCC[C@H](OCCCN(Cc2cccc(C(F)(F)F)c2Cl)CC(c2ccccc2)c2ccccc2)C1 [Compound 66, {[2-chloro-3-(trifluoromethyl)phenyl]methyl}(2,2-diphenylethyl)(3-{[(3S)-1-methanesulfonylpiperidin-3-yl]oxy}propyl)amine] the “ApoE gene expression … (100%)” value (ApoE; 1 μM) was “+++ (“+++” > 80% ApoE induction)”, the “ApoE gene expression … (100%)” value (ApoE; 10 μM) was “+++ (“+++” > 80% ApoE induction)” and the EC50 (ApoE) was less than 3 µM.
CC(=O)NCc1c(F)cc(OCCCN(Cc2cccc(C(F)(F)F)c2Cl)CC(c2ccccc2)c2ccccc2)cc1S(C)(=O)=O [Compound 89, N-({4-[3-({[2-chloro-3-(trifluoromethyl)phenyl]methyl}(2,2-diphenylethyl)amino)propoxy]-2-fluoro-6-methanesulfonylphenyl}methyl)acetamide] was tested, and the EC50 (ApoE; Homo sapiens, MeWo) was less than 1 µM, the Emax at 1 µM (ApoE; Homo sapiens, MeWo, 1 μM) was greater than 80% and the Emax at 10 µM (ApoE; Homo sapiens, MeWo, 10 μM) was greater than 80%.
Work on CS(=O)(=O)c1cc(OCCCN(Cc2cccc(C(F)(F)F)c2)CC(c2ccccc2)c2ccccc2)cc(F)c1CO [Compound 73, (4-{3-[(2,2-diphenylethyl)({[3-(trifluoromethyl)phenyl]methyl})amino]propoxy}-2-fluoro-6-methanesulfonylphenyl)methanol] yielded an Emax at 1 µM (ApoE; Homo sapiens, MeWo, 1 μM) greater than 80% and an Emax at 10 µM (ApoE; Homo sapiens, MeWo, 10 μM) greater than 80%.
Compound O=C(O)Cc1cccc(OCCCN(Cc2cccc(OC(F)(F)C(F)F)c2)CC(c2ccccc2)c2ccccc2)c1 [Compound 25, 2-(3-{3[(2,2-diphenylethyl)({[3-(1,1,2,2-tetrafluoroethoxy)phenyl]methyl})amino]propoxy}phenyl)acetic acid] has an Emax at 1 µM (ApoE; Homo sapiens, MeWo, 1 μM) greater than 40% and an Emax at 10 µM (ApoE; Homo sapiens, MeWo, 10 μM) of less than 40%.
In the case of CC(CCOc1cccc(CC(=O)O)c1)N(Cc1cccc(C(F)(F)F)c1Cl)CC(c1ccccc1)c1ccccc1 (centres unmarked) [SB742881, reference compound], the “% of Cells Migrated Compared to Control” value (Cancer cells (MeWo)) is reported as less than 70%, the EC50 (ApoE; Homo sapiens, MeWo) is reported as less than 1 µM and the Emax at 1 µM (ApoE; Homo sapiens, MeWo, 1 μM) is reported as greater than 40%. For the same compound, the Emax at 10 µM (ApoE; Homo sapiens, MeWo, 10 μM) was greater than 40%.
